Measurements as given in patent US20240287042A1, “NOVEL COMPOUND HAVING INHIBITORY ACTIVITY AGAINST PENDRIN, AND PHARMACEUTICAL USES THEREOF” (UIF (University Industry Foundation), Yonsei University, priority 2021, published 2024).

Experiments:
[1] = molecular target: T1, human wild-type (WT)-pendrin (Homo sapiens, UniProt O43511); assay: Pendrin Cl−/I− exchange inhibitory activity, YFP fluorescence in CHO-K1 cells; assay type: cell-based; conditions: for IC50: CHO-K1-YFP cells, read-out: IC50 of pendrin-induced Cl−/I− anion exchange; for IC50 / Inhibition of pendrin-induced Cl−/I− anion exchange: FIG. 1; for inhibition at 1 µM / inhibition at 3 µM / inhibition at 10 µM / inhibition at 30 µM / inhibition at 100 µM: CHO-K1; for inhibition at 1 µM: compound concentration 1 μM; for inhibition at 3 µM: compound concentration 3 μM; for inhibition at 10 µM: compound concentration 10 μM; for inhibition at 30 µM: compound concentration 30 μM; for inhibition at 100 µM: compound concentration 100 μM
T1 construct: expressed in transfected cells
T1 sequence (O43511 1-780): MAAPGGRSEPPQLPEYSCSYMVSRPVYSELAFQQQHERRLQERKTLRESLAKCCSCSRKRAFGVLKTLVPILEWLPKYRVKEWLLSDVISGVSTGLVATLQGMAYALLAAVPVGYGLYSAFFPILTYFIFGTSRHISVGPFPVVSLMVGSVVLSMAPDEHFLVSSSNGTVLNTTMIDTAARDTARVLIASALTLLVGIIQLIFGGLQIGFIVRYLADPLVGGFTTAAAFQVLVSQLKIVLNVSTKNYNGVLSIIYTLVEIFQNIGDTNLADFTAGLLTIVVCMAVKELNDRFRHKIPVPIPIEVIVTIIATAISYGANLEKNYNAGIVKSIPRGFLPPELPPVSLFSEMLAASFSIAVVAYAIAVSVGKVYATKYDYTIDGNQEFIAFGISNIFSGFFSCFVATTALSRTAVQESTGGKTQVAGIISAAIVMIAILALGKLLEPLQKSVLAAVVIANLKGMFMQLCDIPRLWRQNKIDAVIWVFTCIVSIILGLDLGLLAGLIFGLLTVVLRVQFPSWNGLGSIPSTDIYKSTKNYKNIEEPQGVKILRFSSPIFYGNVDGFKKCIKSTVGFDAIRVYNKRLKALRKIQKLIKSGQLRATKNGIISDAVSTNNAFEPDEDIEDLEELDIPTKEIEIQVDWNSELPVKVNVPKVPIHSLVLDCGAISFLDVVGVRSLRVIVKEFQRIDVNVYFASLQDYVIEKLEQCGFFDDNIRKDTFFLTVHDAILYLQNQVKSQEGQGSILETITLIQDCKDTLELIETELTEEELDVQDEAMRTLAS
How it was run: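 CHO-K1 cells stably co-expressing human WT pendrin and YFP-F46L/H148Q/I152L were preincubated with compound (1–100 µM, or 50 µM single dose) for 10 min at 37°C in HEPES buffer, pH 7.4. NaI solution was then injected and YFP quenching was recorded; the initial iodide influx rate came from the initial fluorescence slope.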

[2] = system: CHO-K1 cells; assay: Cell viability, MTS colorimetric assay; assay type: cell-based, Chinese hamster; conditions: 24 hours; for Cytotoxicity: 30 μM; for Change in survival rate: 100 μM
Experimental: Chinese hamster ovary (CHO)-K1 cells were cultured in DMEM medium containing 10% fetal bovine serum (FBS), 100 units/ml of penicillin and 100 μg/ml streptomycin.
The cell viability was measured using the CellTiter 96® AQueous One Solution cell proliferation assay kit (Promega, Madison, WI, USA). CHO-K1 cells were cultured with medium supplemented with 10% FBS in 96-well plates for 24 hours, and then compounds or vehicle were treated in the medium, and after 24 hours, the medium was completely removed, and the MTS assay was performed as recommended in the supplier's protocol. The absorbance of Formazan was measured at a wavelength of 490 nm using an Infinite M200 microplate reader (Tecan, Austria).

IC50 [1] [nM]	inhibition at 1 µM [1] [%]	inhibition at 3 µM [1] [%]	inhibition at 10 µM [1] [%]	inhibition at 30 µM [1] [%]	inhibition at 100 µM [1] [%]	Inhibition of pendrin-induced Cl−/I− anion exchange [1]	Efficacy on pendrin relative to YPI-H05 ([1]; ratio of IC50 values)	Compound	Cytotoxicity [2]	Change in survival rate [2]
570	70.5	93.6	100	100	100	in a concentration-dependent manner	approximately 5 times	Cc1ccc2[nH]c(C(=O)O)c(CC(=O)N3CCN(c4c(C)cccc4Cl)CC3)c2c1 [YPI-A4948, 3-(2-(4-(2-Chloro-6-methylphenyl)piperazin-1-yl)-2-oxoethyl)-5-methyl-1H-indole-2-carboxylic acid]	no cytotoxicity	around 10%
2700	< 20	24.6	67.9	95.4	96.5	in a concentration-dependent manner	–	Cc1ccc(C)c(N2CCN(C(=O)Cc3c(C(=O)O)[nH]c4ccc(Cl)cc34)CC2)c1 [YPI-H05, 5-chloro-3-(2-(4-(2,5-dimethylphenyl)piperazin-1-yl-)-2-oxoethyl)-1H-indole-2-carboxylic acid]	no cytotoxicity	around 10%
